{
  "source": "paper PMC10545747",
  "about": "“Development of cyclopeptide inhibitors of cGAS targeting protein-DNA interaction and phase separation” (Nature Communications, 2023)",
  "key": {"[1]": {"system": "dsDNA-stimulated THP1 cells", "assay": "qPCR of IFNB1/CXCL10/IL6 mRNA in THP1 cells stimulated by dsDNA (ISD, HSV60mer)", "format": "cell-based, human", "settings": "for IFNB1 mRNA level (Fig. S7c): XQ2B; for Relative mRNA level CXCL10 (Fig. S7d) / Relative mRNA level IFNB1 (Fig. S7d) / Relative mRNA level IL6 (Fig. S7d): ISD +"}, "[2]": {"system": "HSV-1-infected THP1 cells", "assay": "qPCR of IFNB1/CXCL10/IL6 mRNA in THP1 cells stimulated by HSV-1 infection", "format": "cell-based, human", "settings": "HSV-1, XQ2B"}, "[3]": {"system": "primary human PBMCs", "assay": "qPCR of IFNB1 and IL6 mRNA in ISD-stimulated PBMCs", "format": "cell-based", "design": "key to IFNB1 mRNA, qPCR, Fig. 2c / IL6 mRNA, qPCR, Fig. 2c / IFNB1 mRNA (Fig. S7f) / IL6 mRNA (Fig. S7f): relative mRNA level, target CT normalized to GAPDH CT", "procedure": "(§1) The indicated cells were stimulated with either ISD (Sangon Biotech), HSV-1 (Provided by Dr. Zhengfan Jiang), HSV60mer (Sangon Biotech), SATE-cddA[70], 2’3’-cGAMP (Invivogen, Cat# tlrl-nacga23-1), ADU-S100 (MedChemExpress, Cat# HY-12885A) or Poly(I:C) (Invivogen, Cat# tlrl-pic) after XQ2 or XQ2B treatment. Total RNA was isolated from indicated cells that incubated with the drugs for indicated time or mice tissues by using NucleoZOL reagent (MACHEREY-NAGEL) according to the manufacturer’s instructions. The quantifications of mRNA levels were carried out by real-time PCR using a PerfectStart® Uni RT&qPCR Kit (TransGen Biotech) on the QuantStudio 5 qPCR machine (Applied Biosystems). Samples were carried out in triplicate and the target CT values were normalized to GAPDH CT values. Primers of qPCR used in this study can be found in Supplementary Table S2."}, "[4]": {"system": "L929 cells", "assay": "ISD-induced autophagy, LC3-II immunoblotting", "format": "cell-based, mouse", "procedure": "Total cell lysates were prepared in RIPA lysis buffer (Beyotime Biotechnology) supplemented with 1 mM PMSF and 1× protease inhibitor cocktail (Yeasen), and nuclear protein was extracted by nuclear protein extraction kit (Solarbio) in accordance with the manufacturer’s instructions. The samples were separated by SDS-PAGE and transferred to the PVDF membrane (Millipore). The membranes were incubated with the indicated primary antibodies at 4 °C overnight and then incubated with an HRP-conjugated anti-rabbit IgG antibody (Cell Signaling, Cat# 7074, 1:5000) or anti-mouse IgG antibody (Cell Signaling, Cat# 7076, 1:5000) at room temperature for 1 h. The signal was visualized by using the NcmECL Ultra kit (New Cell & Molecular Biotech) and then was exposed by using MiniChemi (SageCreation).\nSupplementary Fig. 3. […] (a) L929 cells were pretreated for\n4 h with DMSO or the indicated doses of XQ2, followed by stimulation with dsDNA for 4 h, and then cell lysates were\n(b) Jurkat cells were exposed to the indicated doses of XQ2, and then stimulated with\nData are representative of three independent experiments in (a, b). (Data are presented as mean ± SD, n = 3 independent\nprovided as a Source Data file.\n(1 picture or pasted object on this page, not shown here)"}, "[5]": {"system": "HSV-1 in THP1 cells", "assay": "HSV-1(UL5) mRNA by qPCR (virus infection of cells)", "format": "cell-based, herpes simplex virus-1", "design": "key to HSV-1(UL5) mRNA, qPCR, Fig. 5d / HSV-1(UL5) mRNA (Fig. S8e): relative mRNA level, target CT normalized to GAPDH CT", "procedure": "as §1"}},
  "note": "Values joined by “and” are separate entries in the source; they are usually repeats but may differ in a detail not shown here. Equal values may be shown once. Square brackets hold non-standard residues; d marks the D form. Peptide text beside a SMILES is read from it.",
  "data": [
    {"smiles": "CC(C)C[C@@H]1NC(=O)[C@H](CCCNC(=N)N)NC(=O)[C@H](C(C)C)NC(=O)[C@@H]2CCCN2C(=O)[C@@H](Cc2ccccc2)NC(=O)[C@H](CC(C)C)NC(=O)[C@H](CCCNC(=N)N)NC(=O)[C@H]([C@@H](C)O)NC(=O)[C@H](C)NC(=O)[C@@H](Cc2ccccc2)NC1=O", "note": "[XQ2B] (cyclo([dF]ATRL[dF]PVRL))", "values": [
      {"measurement": "IFNB1 mRNA level (Fig. S7c)", "setting": "[1]; HSV60mer", "value": "40.2098 and 37.8755 and 37.7329"},
      {"measurement": "Relative mRNA level CXCL10 (Fig. S7d)", "setting": "[1]; XQ2B 0.63 μM", "value": "75.7262 and 111.48 and 109.732"},
      {"measurement": "Relative mRNA level IFNB1 (Fig. S7d)", "setting": "[1]; XQ2B 0.63 μM", "value": "143.341 and 159.417 and 146.307"},
      {"measurement": "Relative mRNA level IL6 (Fig. S7d)", "setting": "[1]; XQ2B 0.63 μM", "value": "4.851 and 5.001 and 4.853"},
      {"measurement": "Relative mRNA level CXCL10 (Fig. S7d)", "setting": "[1]; XQ2B 1.25 μM", "value": "71.0232 and 80.5931 and 82.552"},
      {"measurement": "Relative mRNA level IFNB1 (Fig. S7d)", "setting": "[1]; XQ2B 1.25 μM", "value": "150.862 and 127.331 and 129.696"},
      {"measurement": "Relative mRNA level IL6 (Fig. S7d)", "setting": "[1]; XQ2B 1.25 μM", "value": "5.209 and 4.534 and 5.634"},
      {"measurement": "Relative mRNA level CXCL10 (Fig. S7d)", "setting": "[1]; XQ2B 2.5 μM", "value": "65.3896 and 90.4406 and 75.1347"},
      {"measurement": "Relative mRNA level IFNB1 (Fig. S7d)", "setting": "[1]; XQ2B 2.5 μM", "value": "125.32 and 106.736 and 118.852"},
      {"measurement": "Relative mRNA level IL6 (Fig. S7d)", "setting": "[1]; XQ2B 2.5 μM", "value": "3.096 and 3.258 and 2.284"},
      {"measurement": "Relative mRNA level CXCL10 (Fig. S7d)", "setting": "[1]; XQ2B 5 μM", "value": "49.8503 and 48.6212 and 43.7599"},
      {"measurement": "Relative mRNA level IFNB1 (Fig. S7d)", "setting": "[1]; XQ2B 5 μM", "value": "64.7201 and 61.5772 and 71.2108"},
      {"measurement": "Relative mRNA level CXCL10 (Fig. S7d)", "setting": "[1]; XQ2B 10 μM", "value": "34.1653 and 30.6356 and 36.3338"},
      {"measurement": "Relative mRNA level IFNB1 (Fig. S7d)", "setting": "[1]; XQ2B 10 μM", "value": "33.5888 and 35.227 and 34.4163"},
      {"measurement": "Relative mRNA level IL6 (Fig. S7d)", "setting": "[1]; XQ2B 10 μM", "value": "0.9806 and 0.7505 and 1.24"},
      {"measurement": "Relative mRNA level CXCL10 (Fig. S7d)", "setting": "[1]; XQ2B 20 μM", "value": "10.6053 and 10.5964 and 12.3293"},
      {"measurement": "Relative mRNA level IFNB1 (Fig. S7d)", "setting": "[1]; XQ2B 20 μM", "value": "3.764 and 4.346 and 4.187"},
      {"measurement": "IFNB1 mRNA level (Fig. S7c)", "setting": "[1]; ISD", "value": "15.0362 and 16.705 and 17.0928"},
      {"measurement": "IFNB1 mRNA level (Fig. S7c)", "setting": "[1]; Mock", "value": "1.262 and 0.9081 and 0.8724"},
      {"measurement": "dsDNA/ISD-induced IFNB1, CXCL10, IL6 expression", "setting": "[1]; THP1", "value": "comparable cGAS inhibitory effect as that of XQ2"},
      {"measurement": "IFNB1 mRNA level (Fig. S7c)", "setting": "[2]", "value": "7.282 and 8.679 and 8.662"},
      {"measurement": "ISD-induced IFNB1 and IL6 expression in PBMCs", "setting": "[3]; 10 μM", "value": "significantly inhibit the activation of cGAS induced by ISD"},
      {"measurement": "IFNB1 mRNA (Fig. S7f)", "setting": "[3]; PBMCs, ISD+XQ2B", "value": "841.807 and 913.377 and 771.009"},
      {"measurement": "IL6 mRNA (Fig. S7f)", "setting": "[3]; PBMCs, ISD+XQ2B", "value": "1185.13 and 642.626 and 1199.71"},
      {"measurement": "ISD-induced autophagy, LC3-II formation", "setting": "[4]", "value": "markedly reduced ISD-induced autophagy and cell death"},
      {"measurement": "HSV-1 infection of THP1 cells, HSV1(UL5) mRNA", "setting": "[5]; 10 μM", "value": "facilitated HSV-1 infection"},
      {"measurement": "HSV-1(UL5) mRNA (Fig. S8e)", "setting": "[5]; HSV-1(1×104) 24h", "value": "2.313 and 2.598 and 2.002"},
      {"measurement": "HSV-1(UL5) mRNA (Fig. S8e)", "setting": "[5]; HSV-1(2×104) 24h", "value": "4.745 and 4.808 and 4.905"}
    ]}
  ]
}
